Results: the NIST ThermoML archive (doi:10.1016/j.jct.2016.04.003)
± gives the expanded uncertainty stated by the source.

Legend:
[1] = refractive index (Na D-line) (dimensionless); details: 99 kPa, Liquid, Standard Abbe refractometry
[2] = for surface tension liquid-gas: Drop volume; for viscosity: Capillary tube (Ostwald / Ubbelohde) method
[3] = xn = mol fraction of the nth substance listed; details: x2 = 0; for surface tension liquid-gas: Drop volume; for viscosity / speed of sound / mass density: 99 kPa, Liquid; for viscosity: Capillary tube (Ostwald / Ubbelohde) method; for speed of sound: Frequency=3 MHz, Sing-around technique in a fixed-path interferometer; for mass density: Vibrating tube method
[4] = refractive index (Na D-line) (dimensionless); xn = mol fraction of the nth substance listed; details: 99 kPa, Liquid, Standard Abbe refractometry, x2 = 0

CCCC[n+]1ccccc1.F[B-](F)(F)F [1-butylpyridinium tetrafluoroborate]
Details	refractive index
[1], 293.15 K	1.44719 ± 0.00037

O [water]
Details	refractive index, 293.15 K	refractive index, 303.15 K	refractive index, 313.15 K	refractive index, 323.15 K	surface tension liquid-gas, 293.15 K [mN/m]	surface tension liquid-gas, 303.15 K [mN/m]	surface tension liquid-gas, 313.15 K [mN/m]	surface tension liquid-gas, 323.15 K [mN/m]
[1]	1.33297 ± 0.00031	1.33196 ± 0.00031	1.33061 ± 0.00031	1.32904 ± 0.00031	–	–	–	–
[2]	–	–	–	–	72.7 ± 0.8	71.1 ± 0.8	69.6 ± 0.7	67.8 ± 0.7

[2], 99 kPa, Liquid
Details	viscosity [mPa·s]
293.15 K	1.002 ± 0.08
303.15 K	0.797 ± 0.064
313.15 K	0.653 ± 0.052
323.15 K	0.547 ± 0.044

Details	speed of sound [m/s]
[2], 313.15 K, 99 kPa, Liquid, Frequency=3 MHz, Sing-around technique in a fixed-path interferometer	1529.2 ± 1.2

Details	mass density [kg/m3]
[2], 323.15 K, 99 kPa, Liquid, Vibrating tube method	988.04 ± 1

O [water] + CCCC[n+]1ccccc1.F[B-](F)(F)F
Details	mass density, [3] [kg/m3]	refractive index, [4]	speed of sound, [3] [m/s]	surface tension liquid-gas, [3] [mN/m]	viscosity, [3] [mPa·s]
293.15 K	–	1.33297 ± 0.00031	–	72.7 ± 0.8	1.002 ± 0.08
303.15 K	–	1.33196 ± 0.00031	–	71.1 ± 0.8	0.797 ± 0.064
313.15 K	–	1.33061 ± 0.00031	1529.2 ± 1.2	69.6 ± 0.7	0.653 ± 0.052
323.15 K	988.04 ± 1	1.32904 ± 0.00031	–	67.8 ± 0.7	0.547 ± 0.044

O [water] + CCC[n+]1ccccc1.F[B-](F)(F)F
Details	mass density, [3] [kg/m3]	refractive index, [4]	speed of sound, [3] [m/s]	surface tension liquid-gas, [3] [mN/m]	viscosity, [3] [mPa·s]
293.15 K	–	1.33297 ± 0.00031	–	72.7 ± 0.8	1.002 ± 0.08
303.15 K	–	1.33196 ± 0.00031	–	71.1 ± 0.8	0.797 ± 0.064
313.15 K	–	1.33061 ± 0.00031	1529.2 ± 1.2	69.6 ± 0.7	0.653 ± 0.052
323.15 K	988.04 ± 1	1.32904 ± 0.00031	–	67.8 ± 0.7	0.547 ± 0.044
